Tests used:
Experiment in all cases: Eurofins kinase panel
Type in all cases: biochemical
Settings in all cases: read-out: Inhibition rate (%)
Tie2(Y897S)(h) = target: T1, Tie2(Y897S)(h) (Homo sapiens, UniProt Q02763, Y897S)
T1 construct: purchased Eurofins (KinaseProfiler)

Aurora-B(h) = target: T2, Aurora-B(h) (Homo sapiens, UniProt Q96GD4)
T2 construct: purchased Eurofins (KinaseProfiler)

PI3KC2γ(h) = target: T3, PI3KC2γ(h) (Homo sapiens, UniProt O75747)
T3 construct: purchased Eurofins (KinaseProfiler)
T3 sequence (O75747 1-1486): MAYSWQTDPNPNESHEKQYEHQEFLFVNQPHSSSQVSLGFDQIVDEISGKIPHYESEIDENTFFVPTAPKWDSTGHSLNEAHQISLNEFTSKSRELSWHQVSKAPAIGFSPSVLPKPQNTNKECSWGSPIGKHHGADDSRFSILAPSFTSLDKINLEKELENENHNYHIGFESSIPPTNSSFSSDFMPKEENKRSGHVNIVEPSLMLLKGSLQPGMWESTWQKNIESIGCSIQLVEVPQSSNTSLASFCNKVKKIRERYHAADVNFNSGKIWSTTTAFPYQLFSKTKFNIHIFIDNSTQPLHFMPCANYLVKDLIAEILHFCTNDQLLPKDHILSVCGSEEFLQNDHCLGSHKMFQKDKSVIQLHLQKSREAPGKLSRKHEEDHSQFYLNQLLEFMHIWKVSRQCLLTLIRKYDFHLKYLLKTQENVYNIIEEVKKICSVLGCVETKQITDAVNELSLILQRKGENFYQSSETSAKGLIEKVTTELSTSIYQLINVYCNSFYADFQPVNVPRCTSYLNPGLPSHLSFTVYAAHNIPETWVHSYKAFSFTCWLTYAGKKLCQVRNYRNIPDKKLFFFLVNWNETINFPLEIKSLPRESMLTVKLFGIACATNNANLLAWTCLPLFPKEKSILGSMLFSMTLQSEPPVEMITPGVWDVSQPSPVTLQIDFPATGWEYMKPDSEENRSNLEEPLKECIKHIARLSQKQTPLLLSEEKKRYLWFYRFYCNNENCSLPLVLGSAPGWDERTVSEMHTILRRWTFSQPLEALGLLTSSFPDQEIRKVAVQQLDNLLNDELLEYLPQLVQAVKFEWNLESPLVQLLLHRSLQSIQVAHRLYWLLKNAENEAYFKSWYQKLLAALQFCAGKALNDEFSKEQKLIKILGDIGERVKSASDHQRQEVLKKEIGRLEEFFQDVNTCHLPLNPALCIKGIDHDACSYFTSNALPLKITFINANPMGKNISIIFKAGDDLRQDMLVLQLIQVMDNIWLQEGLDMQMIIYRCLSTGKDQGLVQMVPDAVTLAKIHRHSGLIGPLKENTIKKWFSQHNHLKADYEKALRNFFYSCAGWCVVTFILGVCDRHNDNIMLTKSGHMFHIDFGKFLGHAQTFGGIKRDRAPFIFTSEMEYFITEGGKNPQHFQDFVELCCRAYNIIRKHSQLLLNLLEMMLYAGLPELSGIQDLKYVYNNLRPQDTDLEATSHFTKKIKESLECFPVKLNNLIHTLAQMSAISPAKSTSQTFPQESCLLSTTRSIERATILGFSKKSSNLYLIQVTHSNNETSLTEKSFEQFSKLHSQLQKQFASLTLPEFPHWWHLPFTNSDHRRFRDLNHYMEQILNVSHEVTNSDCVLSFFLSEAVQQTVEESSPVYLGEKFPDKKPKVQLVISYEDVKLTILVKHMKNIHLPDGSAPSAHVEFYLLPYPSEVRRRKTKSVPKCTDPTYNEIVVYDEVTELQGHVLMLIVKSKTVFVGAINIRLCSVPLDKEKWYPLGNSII

ACTR2(h) = target: T4, ACTR2(h) (Homo sapiens, UniProt P27037)
T4 construct: purchased Eurofins (KinaseProfiler)

NEK9(h) = target: T5, NEK9(h) (Homo sapiens, UniProt Q8TD19)
T5 construct: purchased Eurofins (KinaseProfiler)
T5 sequence (Q8TD19 1-979): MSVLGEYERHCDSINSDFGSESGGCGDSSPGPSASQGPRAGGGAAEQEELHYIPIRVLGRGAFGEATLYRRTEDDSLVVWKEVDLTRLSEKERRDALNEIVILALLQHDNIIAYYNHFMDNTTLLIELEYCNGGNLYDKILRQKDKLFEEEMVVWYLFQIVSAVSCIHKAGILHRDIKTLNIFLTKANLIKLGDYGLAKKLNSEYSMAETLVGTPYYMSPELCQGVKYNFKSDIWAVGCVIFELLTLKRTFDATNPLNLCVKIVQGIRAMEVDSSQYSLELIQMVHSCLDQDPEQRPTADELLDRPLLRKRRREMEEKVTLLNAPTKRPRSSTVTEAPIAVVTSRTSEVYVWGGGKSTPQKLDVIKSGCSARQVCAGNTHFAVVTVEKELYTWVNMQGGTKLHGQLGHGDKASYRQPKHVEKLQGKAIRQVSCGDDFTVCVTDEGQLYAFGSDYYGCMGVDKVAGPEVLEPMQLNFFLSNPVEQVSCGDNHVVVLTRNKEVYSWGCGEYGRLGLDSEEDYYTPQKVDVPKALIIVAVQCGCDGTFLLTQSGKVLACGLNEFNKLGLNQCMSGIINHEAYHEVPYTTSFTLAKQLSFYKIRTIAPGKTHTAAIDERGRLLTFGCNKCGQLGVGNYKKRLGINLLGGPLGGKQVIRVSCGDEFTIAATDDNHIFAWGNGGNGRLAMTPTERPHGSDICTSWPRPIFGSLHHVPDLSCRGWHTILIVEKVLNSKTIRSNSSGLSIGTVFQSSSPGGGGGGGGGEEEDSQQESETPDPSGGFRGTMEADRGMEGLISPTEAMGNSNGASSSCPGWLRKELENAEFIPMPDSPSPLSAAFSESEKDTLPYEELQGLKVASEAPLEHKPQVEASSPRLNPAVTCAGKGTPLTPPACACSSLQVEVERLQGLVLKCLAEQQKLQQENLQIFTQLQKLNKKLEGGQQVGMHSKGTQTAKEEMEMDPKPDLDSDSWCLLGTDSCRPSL

T2 sequence (Q96GD4 whole entry): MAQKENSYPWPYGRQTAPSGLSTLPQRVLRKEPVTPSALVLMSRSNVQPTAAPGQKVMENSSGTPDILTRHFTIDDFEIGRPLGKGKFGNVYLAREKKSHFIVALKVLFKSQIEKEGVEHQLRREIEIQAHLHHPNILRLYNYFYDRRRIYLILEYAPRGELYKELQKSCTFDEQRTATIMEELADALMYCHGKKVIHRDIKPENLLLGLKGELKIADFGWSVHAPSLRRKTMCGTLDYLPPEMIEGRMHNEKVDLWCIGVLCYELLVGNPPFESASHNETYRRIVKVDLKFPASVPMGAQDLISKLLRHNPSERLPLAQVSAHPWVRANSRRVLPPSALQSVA
T4 sequence (P27037 20-513): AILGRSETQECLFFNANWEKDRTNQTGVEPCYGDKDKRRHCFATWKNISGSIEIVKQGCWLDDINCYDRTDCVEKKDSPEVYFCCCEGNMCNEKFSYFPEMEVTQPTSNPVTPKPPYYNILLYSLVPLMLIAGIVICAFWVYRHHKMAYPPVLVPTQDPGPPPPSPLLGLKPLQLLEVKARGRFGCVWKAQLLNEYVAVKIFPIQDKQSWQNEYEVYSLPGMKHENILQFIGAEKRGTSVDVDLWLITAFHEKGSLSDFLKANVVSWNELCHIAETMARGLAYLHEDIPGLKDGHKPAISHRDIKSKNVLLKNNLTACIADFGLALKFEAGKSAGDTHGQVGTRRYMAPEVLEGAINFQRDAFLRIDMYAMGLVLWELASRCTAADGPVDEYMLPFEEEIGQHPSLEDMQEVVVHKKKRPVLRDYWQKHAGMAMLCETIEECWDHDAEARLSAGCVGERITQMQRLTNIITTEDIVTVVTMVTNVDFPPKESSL
T1 sequence (Q02763 23-1124 Y897S): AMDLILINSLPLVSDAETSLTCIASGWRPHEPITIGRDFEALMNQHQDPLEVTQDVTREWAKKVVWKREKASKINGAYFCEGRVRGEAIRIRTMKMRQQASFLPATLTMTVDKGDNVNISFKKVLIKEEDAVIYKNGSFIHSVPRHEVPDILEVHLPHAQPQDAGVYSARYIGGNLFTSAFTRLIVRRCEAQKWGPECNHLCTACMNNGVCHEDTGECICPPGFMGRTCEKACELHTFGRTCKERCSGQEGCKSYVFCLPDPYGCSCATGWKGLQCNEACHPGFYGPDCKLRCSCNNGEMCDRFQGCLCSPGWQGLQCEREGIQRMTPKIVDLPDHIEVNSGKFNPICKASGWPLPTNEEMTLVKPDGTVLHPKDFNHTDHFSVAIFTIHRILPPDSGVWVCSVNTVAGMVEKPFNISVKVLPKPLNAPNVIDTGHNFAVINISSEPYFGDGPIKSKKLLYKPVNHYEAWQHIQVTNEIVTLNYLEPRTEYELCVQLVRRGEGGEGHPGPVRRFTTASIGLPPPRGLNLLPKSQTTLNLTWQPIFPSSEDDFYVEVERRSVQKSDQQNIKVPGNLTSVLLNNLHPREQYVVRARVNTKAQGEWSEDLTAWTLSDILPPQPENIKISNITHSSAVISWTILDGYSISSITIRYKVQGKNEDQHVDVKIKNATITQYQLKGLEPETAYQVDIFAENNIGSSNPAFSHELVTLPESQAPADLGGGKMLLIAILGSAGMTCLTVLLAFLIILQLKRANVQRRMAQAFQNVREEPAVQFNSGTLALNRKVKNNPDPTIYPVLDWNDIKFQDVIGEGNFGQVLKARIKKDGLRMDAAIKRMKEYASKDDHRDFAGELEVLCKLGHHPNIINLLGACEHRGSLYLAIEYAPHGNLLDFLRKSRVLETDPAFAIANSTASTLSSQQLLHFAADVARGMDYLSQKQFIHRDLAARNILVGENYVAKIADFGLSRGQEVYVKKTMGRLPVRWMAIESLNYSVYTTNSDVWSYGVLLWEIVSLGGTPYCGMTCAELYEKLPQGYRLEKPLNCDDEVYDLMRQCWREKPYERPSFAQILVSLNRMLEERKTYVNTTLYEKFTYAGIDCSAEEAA

Compound: COc1cc(OC)c(Cl)c(-c2ccc3c(NC(=O)c4ccc(N5CCNC(C)(C)C5)cc4)n[nH]c3n2)c1Cl [3D185]
- inhibition at 0.01 µM (Tie2(Y897S)(h); 10 nM): 14%
- inhibition at 0.1 µM (Tie2(Y897S)(h); 100 nM): 39%
- inhibition at 1 µM (Tie2(Y897S)(h); 1000 nM): 88%
- inhibition at 0.01 µM (Aurora-B(h); 10 nM): 7%
- inhibition at 0.1 µM (Aurora-B(h); 100 nM): -4%
- inhibition at 1 µM (Aurora-B(h); 1000 nM): 5%
- inhibition at 0.01 µM (PI3KC2γ(h); 10 nM): -4%
- inhibition at 0.1 µM (PI3KC2γ(h); 100 nM): -4%
- inhibition at 1 µM (PI3KC2γ(h); 1000 nM): 1%
- inhibition at 0.01 µM (ACTR2(h); 10 nM): 0%
- inhibition at 0.1 µM (ACTR2(h); 100 nM): -1%
- inhibition at 1 µM (ACTR2(h); 1000 nM): 1%
- inhibition at 0.01 µM (NEK9(h); 10 nM): -12%
- inhibition at 0.1 µM (NEK9(h); 100 nM): -6%
- inhibition at 1 µM (NEK9(h); 1000 nM): 14%

Reference: paper PMC6704710, “Preclinical evaluation of 3D185, a novel potent inhibitor of FGFR1/2/3 and CSF-1R, in FGFR-dependent and macrophage-dominant cancer models” (Journal of Experimental & Clinical Cancer Research : CR, 2019)
